Test results as given in ChEMBL document CHEMBL1909046, “DrugMatrix in vitro pharmacology data”.

Columns and labels:
[1] = target: T1, Alpha-1B adrenergic receptor (Rattus norvegicus, UniProt P15823); test: DRUGMATRIX: Alpha-1B adrenergic receptor radioligand binding (ligand: prazosin); format: cell membranes, Wistar, Liver, Membrane; conditions: Not Active = under 50% inhibition at 10 µM
T1 sequence (P15823 whole entry): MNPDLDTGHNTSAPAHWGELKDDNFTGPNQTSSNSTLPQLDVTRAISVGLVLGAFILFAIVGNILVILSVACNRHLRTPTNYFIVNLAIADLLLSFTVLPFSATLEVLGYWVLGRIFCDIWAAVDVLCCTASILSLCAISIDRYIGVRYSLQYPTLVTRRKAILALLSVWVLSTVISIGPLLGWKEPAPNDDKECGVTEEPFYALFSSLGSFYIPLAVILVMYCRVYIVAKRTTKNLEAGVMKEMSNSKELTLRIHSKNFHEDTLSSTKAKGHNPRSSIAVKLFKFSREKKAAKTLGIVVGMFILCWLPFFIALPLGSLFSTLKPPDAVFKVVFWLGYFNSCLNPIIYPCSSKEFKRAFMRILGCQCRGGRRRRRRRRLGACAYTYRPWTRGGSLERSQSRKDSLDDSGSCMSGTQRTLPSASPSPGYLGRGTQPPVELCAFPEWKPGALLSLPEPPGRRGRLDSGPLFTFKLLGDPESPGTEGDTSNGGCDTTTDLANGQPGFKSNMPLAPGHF

[2] = target: T2, 5-hydroxytryptamine receptor 1A (Rattus norvegicus, UniProt P19327); format: cell membranes, CHO-K1, Membrane; conditions: for Ki: read-out: Ki; on all read-outs here: in other assays of this panel Not Active means under 50% inhibition at 10 µM
T2 sequence (P19327 whole entry): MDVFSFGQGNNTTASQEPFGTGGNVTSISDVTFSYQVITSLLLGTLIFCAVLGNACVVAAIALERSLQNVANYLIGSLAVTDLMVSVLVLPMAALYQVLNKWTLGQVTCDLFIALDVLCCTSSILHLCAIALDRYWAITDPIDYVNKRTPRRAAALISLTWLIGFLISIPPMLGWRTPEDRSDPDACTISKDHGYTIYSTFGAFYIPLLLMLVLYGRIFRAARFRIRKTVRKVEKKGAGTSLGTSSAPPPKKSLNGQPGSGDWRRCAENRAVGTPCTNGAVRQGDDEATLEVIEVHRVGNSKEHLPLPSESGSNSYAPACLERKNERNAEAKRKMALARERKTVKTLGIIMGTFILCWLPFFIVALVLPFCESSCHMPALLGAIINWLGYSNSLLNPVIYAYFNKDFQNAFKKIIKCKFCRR

[3] = target: T3, Alpha-2C adrenergic receptor (Homo sapiens, UniProt P18825); test: DRUGMATRIX: Adrenergic Alpha-2C radioligand binding (ligand: [3H] MK-912); format: cell membranes, Sf9, Membrane; conditions: sf9
T3 sequence (P18825 whole entry): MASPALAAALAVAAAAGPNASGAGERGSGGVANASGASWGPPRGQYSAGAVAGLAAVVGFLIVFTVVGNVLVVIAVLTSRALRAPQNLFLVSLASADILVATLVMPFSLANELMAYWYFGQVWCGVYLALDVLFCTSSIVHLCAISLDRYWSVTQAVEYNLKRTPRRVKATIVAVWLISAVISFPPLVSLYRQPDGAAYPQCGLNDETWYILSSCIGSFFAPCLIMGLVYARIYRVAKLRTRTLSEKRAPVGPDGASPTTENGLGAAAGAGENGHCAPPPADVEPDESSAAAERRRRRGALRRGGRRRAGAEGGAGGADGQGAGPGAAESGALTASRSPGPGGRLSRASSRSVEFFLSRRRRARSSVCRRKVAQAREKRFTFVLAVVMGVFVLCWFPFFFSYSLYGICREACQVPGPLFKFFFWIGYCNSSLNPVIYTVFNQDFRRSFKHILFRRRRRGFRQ

[4] = target: Voltage-gated inwardly rectifying potassium channel KCNH2 (Homo sapiens, UniProt Q12809); conditions: hek293; further: in other assays of this panel Not Active means under 50% inhibition at 10 µM
Voltage-gated inwardly rectifying potassium channel KCNH2, sequence (Q12809 whole entry): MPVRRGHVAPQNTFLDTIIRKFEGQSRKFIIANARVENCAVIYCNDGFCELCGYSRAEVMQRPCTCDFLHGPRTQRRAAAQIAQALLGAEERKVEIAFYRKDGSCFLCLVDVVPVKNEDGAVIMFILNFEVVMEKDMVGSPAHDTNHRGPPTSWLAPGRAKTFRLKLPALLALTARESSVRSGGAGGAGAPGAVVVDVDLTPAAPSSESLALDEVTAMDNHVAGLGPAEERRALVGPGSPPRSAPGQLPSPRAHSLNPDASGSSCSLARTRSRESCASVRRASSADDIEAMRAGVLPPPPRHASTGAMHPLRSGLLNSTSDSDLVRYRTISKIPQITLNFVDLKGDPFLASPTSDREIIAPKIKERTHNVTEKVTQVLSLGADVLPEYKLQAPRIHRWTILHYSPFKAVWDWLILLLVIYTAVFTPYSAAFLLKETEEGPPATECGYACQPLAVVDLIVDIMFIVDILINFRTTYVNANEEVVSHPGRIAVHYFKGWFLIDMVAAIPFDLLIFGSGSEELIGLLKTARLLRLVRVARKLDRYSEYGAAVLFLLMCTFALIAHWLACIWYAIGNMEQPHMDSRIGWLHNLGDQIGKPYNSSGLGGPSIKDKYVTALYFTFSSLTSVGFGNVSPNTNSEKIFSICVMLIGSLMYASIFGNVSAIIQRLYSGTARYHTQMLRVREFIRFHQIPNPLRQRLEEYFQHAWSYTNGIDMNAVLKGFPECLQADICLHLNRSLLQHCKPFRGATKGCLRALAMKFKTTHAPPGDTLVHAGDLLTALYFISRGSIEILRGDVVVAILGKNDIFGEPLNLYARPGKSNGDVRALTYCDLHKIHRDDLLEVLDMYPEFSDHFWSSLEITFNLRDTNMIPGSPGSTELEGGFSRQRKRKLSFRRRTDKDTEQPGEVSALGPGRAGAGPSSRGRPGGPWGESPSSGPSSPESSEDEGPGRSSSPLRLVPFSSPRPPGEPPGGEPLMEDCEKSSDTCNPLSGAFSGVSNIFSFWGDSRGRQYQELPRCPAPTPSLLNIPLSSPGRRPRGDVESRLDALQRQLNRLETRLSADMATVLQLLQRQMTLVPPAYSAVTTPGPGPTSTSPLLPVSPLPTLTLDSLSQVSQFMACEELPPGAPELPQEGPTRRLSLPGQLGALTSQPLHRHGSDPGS

[5] = DRUGMATRIX: Calcium Channel Type L, Benzothiazepine radioligand binding (ligand: [3H] Diltiazem); format: cell membranes, Rattus norvegicus, Wistar, Brain, Membrane; conditions: Not Active = under 50% inhibition at 10 µM
[6] = DRUGMATRIX: GABAA, Chloride Channel, TBOB radioligand binding (ligand: [3H] TBOB); format: cell membranes, Rattus norvegicus, Wistar, Cerebral cortex, Membrane; conditions: Not Active = under 50% inhibition at 10 µM
[7] = DRUGMATRIX: beta-Lactamase enzyme inhibition (substrate: Nitrocefin); design: species or system Bacillus cereus; conditions: Not Active = under 50% inhibition at 10 µM
[8] = DRUGMATRIX: Atrial Natriuretic Factor (ANF) radioligand binding (ligand: [125I] ANF (rat)); format: cell membranes, Cavia porcellus, Dunkin-Hartley, Adrenal gland, Membrane; conditions: Not Active = under 50% inhibition at 10 µM
[9] = target: C-C chemokine receptor type 2 (Homo sapiens, UniProt P41597); format: cell membranes, CHO-K1, Membrane; conditions: cho-k1; further: in other assays of this panel Not Active means under 50% inhibition at 10 µM
C-C chemokine receptor type 2, sequence (P41597 whole entry): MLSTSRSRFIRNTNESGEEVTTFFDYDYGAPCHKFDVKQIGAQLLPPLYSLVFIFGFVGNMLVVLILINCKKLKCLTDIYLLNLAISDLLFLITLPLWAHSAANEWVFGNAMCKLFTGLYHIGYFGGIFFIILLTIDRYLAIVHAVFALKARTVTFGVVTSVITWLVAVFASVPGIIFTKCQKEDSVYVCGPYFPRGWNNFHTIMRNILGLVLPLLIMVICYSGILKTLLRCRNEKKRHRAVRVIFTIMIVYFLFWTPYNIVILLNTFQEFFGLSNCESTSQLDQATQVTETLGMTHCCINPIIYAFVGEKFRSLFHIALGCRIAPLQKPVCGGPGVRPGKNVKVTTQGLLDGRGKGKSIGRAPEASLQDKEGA

[10] = DRUGMATRIX: Calcium Channel Type L, Dihydropyridine radioligand binding (ligand: [3H] Nitrendipine); format: cell membranes, Rattus norvegicus, Wistar, Cerebral cortex, Membrane; conditions: Not Active = under 50% inhibition at 10 µM
[11] = target: cGMP-specific 3',5'-cyclic phosphodiesterase (Homo sapiens, UniProt O76074); test: DRUGMATRIX: Phosphodiesterase PDE5 enzyme inhibition (substrate: [3H]cGMP + cGMP); format: tissue-based, Platelet; conditions: platelet; Not Active = under 50% inhibition at 10 µM
Vasopressin V1a receptor = Vasopressin V1a receptor (Homo sapiens, UniProt P37288); format: cell membranes, Membrane; conditions: hek293; further: in other assays of this panel Not Active means under 50% inhibition at 10 µM
Vasopressin V1a receptor, sequence (P37288 whole entry): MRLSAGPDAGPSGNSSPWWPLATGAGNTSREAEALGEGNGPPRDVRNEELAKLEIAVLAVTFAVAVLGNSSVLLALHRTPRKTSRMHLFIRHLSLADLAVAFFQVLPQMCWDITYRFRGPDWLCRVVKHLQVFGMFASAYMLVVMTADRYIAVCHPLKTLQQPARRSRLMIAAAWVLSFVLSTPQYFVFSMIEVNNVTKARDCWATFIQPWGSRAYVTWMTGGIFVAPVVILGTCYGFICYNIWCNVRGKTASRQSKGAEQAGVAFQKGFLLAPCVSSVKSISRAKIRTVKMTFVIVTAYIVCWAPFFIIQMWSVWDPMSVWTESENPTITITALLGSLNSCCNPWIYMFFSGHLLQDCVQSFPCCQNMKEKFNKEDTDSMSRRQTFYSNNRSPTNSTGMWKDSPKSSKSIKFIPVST

Acetylcholinesterase = Acetylcholinesterase (Homo sapiens, UniProt P22303); test: DRUGMATRIX: Acetylcholinesterase enzyme inhibition (substrate: acetylthiocholine); format: cell-based, HEK293; conditions: hek293; Not Active = under 50% inhibition at 10 µM
Acetylcholinesterase, sequence (P22303 whole entry): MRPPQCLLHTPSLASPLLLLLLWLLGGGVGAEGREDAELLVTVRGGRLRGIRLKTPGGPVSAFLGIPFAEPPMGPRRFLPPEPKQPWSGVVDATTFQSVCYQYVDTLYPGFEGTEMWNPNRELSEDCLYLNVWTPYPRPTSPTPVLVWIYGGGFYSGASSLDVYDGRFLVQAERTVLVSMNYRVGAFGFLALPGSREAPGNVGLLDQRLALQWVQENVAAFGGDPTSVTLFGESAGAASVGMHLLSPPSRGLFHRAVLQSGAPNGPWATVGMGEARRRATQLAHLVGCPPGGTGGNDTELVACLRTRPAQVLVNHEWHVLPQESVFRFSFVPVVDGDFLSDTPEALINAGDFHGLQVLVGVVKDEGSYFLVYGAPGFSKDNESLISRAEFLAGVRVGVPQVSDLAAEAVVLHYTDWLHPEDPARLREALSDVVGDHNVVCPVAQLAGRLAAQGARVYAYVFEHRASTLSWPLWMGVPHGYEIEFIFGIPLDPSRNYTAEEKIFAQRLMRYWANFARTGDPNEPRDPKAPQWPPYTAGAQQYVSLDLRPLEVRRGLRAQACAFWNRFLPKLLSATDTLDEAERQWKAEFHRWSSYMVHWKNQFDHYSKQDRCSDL

Leukotriene C4 synthase = target: T4, Leukotriene C4 synthase (Cavia porcellus, UniProt A6XA80); test: biochemical; format: tissue-based, Lung
T4 sequence (A6XA80 whole entry): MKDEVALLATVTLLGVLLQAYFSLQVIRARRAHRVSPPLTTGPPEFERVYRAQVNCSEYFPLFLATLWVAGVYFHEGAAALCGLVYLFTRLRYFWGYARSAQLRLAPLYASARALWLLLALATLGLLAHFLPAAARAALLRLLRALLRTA

[12] = DRUGMATRIX: Serotonin (5-Hydroxytryptamine) 5-HT3 radioligand binding (ligand: [3H] GR-65630); format: cell membranes, Membrane; conditions: hek293; Not Active = under 50% inhibition at 10 µM
Cytochrome P450 3A4 = Cytochrome P450 3A4 (Homo sapiens, UniProt P08684); conditions: bti-tn-5b1-4; further: in other assays of this panel Not Active means under 50% inhibition at 10 µM
Cytochrome P450 3A4, sequence (P08684 whole entry): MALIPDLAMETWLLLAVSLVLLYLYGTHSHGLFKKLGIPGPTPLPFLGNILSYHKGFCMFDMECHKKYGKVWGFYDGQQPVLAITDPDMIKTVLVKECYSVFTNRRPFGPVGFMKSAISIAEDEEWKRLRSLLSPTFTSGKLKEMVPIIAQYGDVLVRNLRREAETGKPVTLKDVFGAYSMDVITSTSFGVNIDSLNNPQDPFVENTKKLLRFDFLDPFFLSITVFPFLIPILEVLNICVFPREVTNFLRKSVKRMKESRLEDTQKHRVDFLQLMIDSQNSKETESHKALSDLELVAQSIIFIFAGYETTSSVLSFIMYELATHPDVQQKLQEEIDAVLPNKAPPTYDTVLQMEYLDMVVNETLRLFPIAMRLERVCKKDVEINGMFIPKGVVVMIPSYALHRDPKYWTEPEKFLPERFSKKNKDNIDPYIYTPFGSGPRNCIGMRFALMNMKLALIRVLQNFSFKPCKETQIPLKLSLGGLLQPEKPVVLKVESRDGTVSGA

Structure (SMILES)	IC50 [1]	IC50 ([2]; cho-k1)	IC50 [3]	IC50 [5]	Ki [5]	IC50 [6]	Ki [6]	IC50 [7]	Ki [7]	IC50 [8]	Ki [8]	IC50 [9]	IC50 [10]	Ki [10]	IC50 [11]	IC50 (Vasopressin V1a receptor)	IC50 (Acetylcholinesterase)	IC50 (Leukotriene C4 synthase)	IC50 [12]	Ki [12]	also measured
CCCSc1ccc2nc(NC(=O)OC)[nH]c2c1 [ALBENDAZOLE]	Not Active	Not Active	Not Active	Not Active	Not Active	Not Active	Not Active	Not Active	Not Active	Not Active	Not Active	Not Active	Not Active	Not Active	Not Active	Not Active	Not Active	Not Active	Not Active	Not Active	IC50 [4]: Not Active; Ki [4]: Not Active
CNCCC=C1c2ccccc2CCc2ccccc21 [NORTRIPTYLINE]	–	–	–	–	–	Not Active	Not Active	Not Active	Not Active	Not Active	Not Active	Not Active	Not Active	Not Active	Not Active	Not Active	Not Active	Not Active	Not Active	Not Active	IC50 ([1]; read-out: IC50): 207 nM; Ki ([1]; read-out: Ki): 114 nM; IC50 ([2]; read-out: IC50): 1870 nM; Ki [2]: 1070 nM; IC50 (Cytochrome P450 3A4): Not Active; Ki (Cytochrome P450 3A4): Not Active; IC50 [4]: Not Active; Ki [4]: Not Active; IC50 ([5]; read-out: IC50): 2800 nM; Ki ([5]; read-out: Ki): 2490 nM
O=C(O)c1cn(C2CC2)c2cc(N3CCNCC3)c(F)cc2c1=O [CIPROFLOXACIN]	Not Active	Not Active	Not Active	Not Active	Not Active	Not Active	Not Active	Not Active	Not Active	Not Active	Not Active	Not Active	Not Active	Not Active	Not Active	Not Active	Not Active	Not Active	Not Active	Not Active	–
CNC(=O)Oc1ccc2c(c1)[C@]1(C)CCN(C)[C@@H]1N2C [PHYSOSTIGMINE]	Not Active	Not Active	Not Active	Not Active	Not Active	Not Active	Not Active	Not Active	Not Active	Not Active	Not Active	Not Active	Not Active	Not Active	Not Active	Not Active	–	Not Active	Not Active	Not Active	IC50 (Cytochrome P450 3A4): Not Active; Ki (Cytochrome P450 3A4): Not Active; IC50 [4]: Not Active; Ki [4]: Not Active
COc1ccc([C@@H]2Sc3ccccc3N(CCN(C)C)C(=O)[C@@H]2OC(C)=O)cc1 [DILTIAZEM]	Not Active	Not Active	Not Active	–	–	Not Active	Not Active	Not Active	Not Active	Not Active	Not Active	Not Active	Not Active	Not Active	Not Active	Not Active	Not Active	Not Active	Not Active	Not Active	IC50 ([5]; read-out: IC50): 28 nM; Ki ([5]; read-out: Ki): 25 nM
O=C1OCCN1/N=C/c1ccc([N+](=O)[O-])o1 [FURAZOLIDONE]	Not Active	Not Active	Not Active	Not Active	Not Active	Not Active	Not Active	Not Active	Not Active	Not Active	Not Active	Not Active	Not Active	Not Active	Not Active	Not Active	Not Active	Not Active	Not Active	Not Active	–
Cc1ccccc1N1CCN(CCc2nnc3n2CCCC3)CC1 [DAPIPRAZOLE]	–	–	Not Active	Not Active	Not Active	Not Active	Not Active	Not Active	Not Active	Not Active	Not Active	Not Active	Not Active	Not Active	Not Active	Not Active	Not Active	Not Active	Not Active	Not Active	IC50 ([2]; read-out: IC50): 2060 nM; Ki [2]: 1180 nM; IC50 (Cytochrome P450 3A4): Not Active; Ki (Cytochrome P450 3A4): Not Active; IC50 [4]: Not Active; Ki [4]: Not Active
C/C=C1\[C@H]2C=C(C)C[C@]1(N)c1ccc(=O)[nH]c1C2 [HUPERZINE A]	Not Active	Not Active	Not Active	Not Active	Not Active	Not Active	Not Active	Not Active	Not Active	Not Active	Not Active	Not Active	Not Active	Not Active	Not Active	Not Active	–	Not Active	Not Active	Not Active	IC50 (Cytochrome P450 3A4): Not Active; Ki (Cytochrome P450 3A4): Not Active; IC50 [4]: Not Active; Ki [4]: Not Active
